From PMC7701510, “Identification of HN252 as a potent inhibitor of protein phosphatase PPM1B” (Journal of Cellular and Molecular Medicine, 2020)

Legend:
Assay in all cases: pNPP hydrolysis phosphatase assay (selectivity panel)
Format in all cases: biochemical
Conditions in all cases: pNPP as substrate
PPM1K = target: T1, PPM1K (Homo sapiens, UniProt Q8N3J5)
T1 sequence (Q8N3J5 30-372): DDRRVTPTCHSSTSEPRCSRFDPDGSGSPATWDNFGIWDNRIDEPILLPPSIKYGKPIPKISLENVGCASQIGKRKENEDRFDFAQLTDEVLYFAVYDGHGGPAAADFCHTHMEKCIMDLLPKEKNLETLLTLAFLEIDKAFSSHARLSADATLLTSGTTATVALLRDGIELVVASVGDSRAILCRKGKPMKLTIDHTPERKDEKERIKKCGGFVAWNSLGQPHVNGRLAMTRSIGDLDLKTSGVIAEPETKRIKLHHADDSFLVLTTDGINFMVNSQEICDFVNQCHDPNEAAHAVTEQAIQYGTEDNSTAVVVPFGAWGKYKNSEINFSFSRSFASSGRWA

SSH1 = target: T2, SSH1 (Homo sapiens, UniProt Q8WYL5)
T2 sequence (Q8WYL5 1-1049): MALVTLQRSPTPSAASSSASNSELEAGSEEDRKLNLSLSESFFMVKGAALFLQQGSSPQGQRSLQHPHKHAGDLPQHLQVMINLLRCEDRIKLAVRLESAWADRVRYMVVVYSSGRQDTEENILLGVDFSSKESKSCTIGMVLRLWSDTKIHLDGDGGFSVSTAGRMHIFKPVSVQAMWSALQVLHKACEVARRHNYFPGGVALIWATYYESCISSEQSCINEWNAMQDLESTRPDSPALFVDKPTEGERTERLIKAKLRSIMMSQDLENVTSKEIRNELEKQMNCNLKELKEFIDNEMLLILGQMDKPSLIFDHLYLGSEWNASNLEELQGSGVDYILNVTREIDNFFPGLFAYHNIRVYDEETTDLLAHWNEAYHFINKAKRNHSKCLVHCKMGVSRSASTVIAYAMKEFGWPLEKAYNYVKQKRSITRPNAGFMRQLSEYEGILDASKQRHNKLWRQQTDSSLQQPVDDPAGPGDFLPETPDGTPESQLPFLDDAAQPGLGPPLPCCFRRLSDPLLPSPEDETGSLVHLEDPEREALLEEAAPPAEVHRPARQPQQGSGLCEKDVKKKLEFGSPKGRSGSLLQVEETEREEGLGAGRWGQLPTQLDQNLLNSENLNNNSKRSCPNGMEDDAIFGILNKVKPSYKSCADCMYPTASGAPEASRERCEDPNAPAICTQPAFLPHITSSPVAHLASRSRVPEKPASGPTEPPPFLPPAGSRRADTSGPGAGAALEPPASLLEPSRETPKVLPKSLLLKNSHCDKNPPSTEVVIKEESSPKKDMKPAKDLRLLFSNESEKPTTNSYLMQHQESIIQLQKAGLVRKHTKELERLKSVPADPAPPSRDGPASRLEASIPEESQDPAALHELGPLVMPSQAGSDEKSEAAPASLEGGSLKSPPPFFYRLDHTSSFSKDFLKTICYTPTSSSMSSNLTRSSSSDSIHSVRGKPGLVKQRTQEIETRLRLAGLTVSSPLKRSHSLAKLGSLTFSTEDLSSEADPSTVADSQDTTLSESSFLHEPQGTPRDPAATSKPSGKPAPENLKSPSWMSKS
Procedure: The kinetic assays of PPM1B were carried out at 37°C in 0.1 M acetic acid buffer (50 mM Tris, 40 mM Mn^2+, pH 7.0). The p‐nitrophenyl phosphate (pNPP, Sigma) was used as the substrate which could be conveniently measured at 405 nm. Reactions were started by addition of pNPP to a reaction mixture containing PPM1B (0.4 μM PPM1B, final concentration) and various concentrations of HN252 and stopped by addition of 0.5 M EDTA (pH 10.0) after an appropriate time. The Km value of PPM1B towards pNPP hydrolysis (3.6 mM for pNPP) was used to determine the IC50. The IC50 values, the inhibition constant Ki and inhibition pattern were evaluated as previously described. ^18 The kinetic assays of HN252 towards to other protein phosphatases were carried out as previously described. ^19

STEP = target: T3, STEP (Homo sapiens, UniProt P54829)
T3 sequence (P54829 1-565): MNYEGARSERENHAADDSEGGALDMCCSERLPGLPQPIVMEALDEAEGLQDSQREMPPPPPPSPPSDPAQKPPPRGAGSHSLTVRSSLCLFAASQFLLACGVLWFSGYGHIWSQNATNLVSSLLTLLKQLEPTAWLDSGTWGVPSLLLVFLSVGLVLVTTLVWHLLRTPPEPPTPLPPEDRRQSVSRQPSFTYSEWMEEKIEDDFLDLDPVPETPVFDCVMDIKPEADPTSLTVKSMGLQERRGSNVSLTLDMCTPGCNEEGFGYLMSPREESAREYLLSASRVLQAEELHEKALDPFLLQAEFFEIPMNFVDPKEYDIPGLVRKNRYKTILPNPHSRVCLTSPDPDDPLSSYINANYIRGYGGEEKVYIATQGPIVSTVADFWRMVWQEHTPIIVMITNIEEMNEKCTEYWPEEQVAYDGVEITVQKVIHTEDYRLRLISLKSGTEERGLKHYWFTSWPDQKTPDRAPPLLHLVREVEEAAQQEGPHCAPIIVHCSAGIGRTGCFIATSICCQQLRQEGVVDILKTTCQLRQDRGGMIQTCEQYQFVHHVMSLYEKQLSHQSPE

## Nc1cc(-c2ccc(-c3ccc(O)c(O)c3)cc2)ccc1C(=O)O [HN252]
PPM1K
  IC50: 27.4 ± 3.92 µM
SSH1
  IC50: 54.6 ± 13 µM
STEP
  IC50: 91.1 ± 10.1 µM
